Values of other authors in US20200353086A1, “CONTROLLED-RELEASE FORMULATIONS” (CAMURUS AB, priority 2014, published 2020).
*1 amine or outer side, *2 acyl side, *3 side chain or, on linkers, in order; H or OH if unused. Where a SMILES comes first, the peptide text is derived from it. Side-chain parts run from the residue outwards. [ ]: non-standard residue; d: D form. The star is where a group is joined. Ethylenediamine = C(CN[*:2])N[*:1]; Hyp = O=C(O)[C@@H]1C[C@@H](O)CN1; Phg = N[C@H](C(=O)O)c1ccccc1; CO = O=C([*:1])[*:2]; Bn = c1ccc(C*)cc1

Assays:
[1] = tested on: somatostatin receptors (SSTRs)
[2] = human, single subcutaneous dose

Row | Molecule | terminal half-life (in vivo) | selectivity between somatostatin receptor subtypes [1] | initial half-life following the peak [2] [h] | affinity for somatostatin receptor subtypes [1] | biological half-life (natural SST-14)
1 | C[C@@H](O)[C@@H]1NC(=O)[C@H](CCCCN)NC(=O)[C@@H](Cc2c[nH]c3ccccc23)NC(=O)[C@H](Cc2ccccc2)NC(=O)[C@@H](NC(=O)[C@H](N)Cc2ccccc2)CSSC[C@@H](C(=O)N[C@H](CO)[C@@H](C)O)NC1=O [Octreotide, D-Phe-Cys-Phe-D-Trp-Lys-Thr-Cys-Thr-ol (2-7 disulphide bridge)] | around 1.7 hours | high selectivity for SSTR2 and SSTRS |  |  | 
2 | NCCCC[C@@H]1NC(=O)[C@@H](Cc2c[nH]c3ccccc23)NC(=O)[C@H](c2ccccc2)NC(=O)[C@@H]2C[C@@H](OC(=O)NCCN)CN2C(=O)[C@H](Cc2ccccc2)NC(=O)[C@H](Cc2ccc(OCc3ccccc3)cc2)NC1=O [Pasireotide] (cyclo([Hyp]([CO-Ethylenediamine])[Phg][dW]KY(Bn)F)) |  |  | 2 to 3 | high affinity for somatostatin receptor subtypes sstr1,2,3 and sstr5 | 
3 | Ala-Gly-Cys-Lys-Asn-Phe-Phe-Trp-Lys-Thr-Phe-Thr-Ser-Cys [SST-14] |  |  |  | equally high affinity | 1-3 minutes
